Assay [1] relates to HIV-1 pseudovirus pseudotyped with HXB2 Env. Kind of assay: microbe, parasite or virus in culture. In kind it is cell-based. The conditions noted are these: TZM-bl cells, HIV-1 pseudovirus with HXB2 Env.
Assay [2] concerns panel of HIV-1 ENV-pseudoviruses (subtype A, A/D, A2/D, A/E, A/G, B, C and D). The assay can be described thus: microbe, parasite or virus in culture. The format is cell-based.
Where [3] appears, read: Human immunodeficiency virus 1, HXB2, TZM-bl.

Where two headings read alike, the source gives them in different places.

The compound `Cc1cc(-c2ccc(Cl)cc2)[nH]c1C(=O)NC(CN)c1nc(C)c(CO)s1` (stereo not drawn) [Compound 73] registered an IC50 in assay [1] (setting [3]) of 2.2 ± 0.8 µM.
Still for that read-out and setting: for `Cc1ccc(-c2ccc(C(=O)NC(c3nc(C)c(CO)s3)C3CCCCN3)[nH]2)cc1F` (single isomer, unassigned) [Compound 22] the value was 2.7 ± 0.2 µM; for `Cc1nc(C(NC(=O)c2ccc(-c3ccc(Cl)cc3)[nH]2)C2CCCCN2)sc1CCO` (single isomer, unassigned) [Compound 28], 8.9 ± 0.2 µM.
On the same count and under the same terms, the result for `CC(=O)NCC(NC(=O)c1ccc(-c2ccc(Cl)c(F)c2)[nH]1)c1nc(C)c(COC(C)=O)s1` (stereo not drawn) [Compound 70] reads greater than 40 µM; that for `N=C(N)NCCCC(NC(=O)c1ccc(-c2ccccc2)[nH]1)C(=O)NN1CCOCC1` (stereo not drawn) [Compound 10], greater than 43 µM; that for `N=C(N)NCCCC(NC(=O)c1ccc(-c2ccc(Cl)cc2)[nH]1)C(=O)NCCO` (stereo not drawn) [Compound 4], greater than 44 µM.
Still for that read-out and setting: the result for `O=C(NC(c1ccccc1)c1ccc[nH]1)c1ccc(-c2ccc(Cl)cc2)[nH]1` (stereo not drawn) [Compound 1] reads 16.4 ± 1.5 µM; that for `Nc1nc(CNC(=O)c2ccc(-c3ccc(Cl)cc3)[nH]2)n[nH]1` [Compound 2], greater than 63 µM; that for `Cc1ccc(-c2ccc(C(=O)NC(CN)c3nc(C)c(CO)s3)[nH]2)cc1F` (single isomer, unassigned) [Compound 43], 1.7 ± 0.4 µM.
In assay [1], `Cc1nc(C(CN)NC(=O)c2cnc(-c3ccc(Cl)cc3)[nH]2)sc1CO` (stereo not drawn) [Compound 98] displayed a concentration for half-maximal inhibition (IC50) greater than 51 µM.
With `Cc1nc(C(CN(C)C)NC(=O)c2ccc(-c3ccc(Cl)c(F)c3)[nH]2)sc1CO` (stereo not drawn) [Compound 71], the 50% inhibitory concentration (IC50) in assay [1] (setting [3]) came to 3.6 ± 1 µM.
Still for that read-out and setting: the result for `Cc1nc(C(NC(=O)c2ccc(-c3ccc(Cl)c(F)c3)[nH]2)C2CCCCN2)sc1CO` (single isomer, unassigned) [Compound 20] reads 3 ± 0.4 µM; that for `Cc1nc(C(CCN(C)C)NC(=O)c2ccc(-c3ccc(Cl)cc3)[nH]2)sc1CO` (stereo not drawn) [Compound 80], 14.2 ± 0.7 µM; that for `Cc1ccc(-c2ccc(C(=O)NC(CCN(C)C)c3nc(C)c(CO)s3)[nH]2)cc1F` (stereo not drawn) [Compound 76], 11 ± 2.5 µM.
Turning to `Cc1nc(C(CNC(=N)N)NC(=O)c2ccc(-c3ccc(Cl)cc3)[nH]2)sc1CO` (single isomer, unassigned) [Compound 45], the IC50 in assay [1] (setting [3]) was greater than 37 µM.
Still for that read-out and setting: for `Cc1cc(C(=O)NC(CN)c2nc(C)c(CO)s2)[nH]c1-c1ccc(Cl)cc1` (stereo not drawn) [Compound 101] the value was 3.6 ± 0.4 µM.
The compound `Cc1nc(C(NC(=O)c2ccc(-c3ccc(Cl)cc3)[nH]2)C2CCCCN2)[nH]c1CO` (single isomer, unassigned) [Compound 33] had an IC50 in assay [1] (setting [3]) of 14 ± 0.1 µM.
The same measure, in the same setting: for `Cc1nc(C(CN)NC(=O)c2ccc(-c3ccc(Cl)c(F)c3)[nH]2)sc1CO` (single isomer, unassigned) [Compound 51] the value was 1.4 ± 0.5 µM; for `N=C(N)Nc1ccc(CC(NC(=O)c2ccc(-c3ccc(Cl)cc3)[nH]2)C(=O)N2CCOCC2)cc1` (stereo not drawn) [Compound 3], greater than 36 µM.
Same read-out and setting: for `Cc1nc(C(NC(=O)c2ccc(-c3ccc(Cl)cc3)[nH]2)C2CCCCN2)sc1CCCO` (stereo not drawn) [Compound 32] the value was 7.6 ± 0.8 µM.
Take `Cc1nc(C(CCN)NC(=O)c2ccc(-c3ccc(Cl)c(F)c3)[nH]2)sc1CO` (stereo not drawn) [Compound 90]: inhibition in assay [1] (setting [3]) was half-maximal at 4.1 ± 1.5 µM (IC50).
Same read-out and setting: for `N=C(N)NCCCC(NC(=O)c1ccc(-c2ccc(Cl)cc2)[nH]1)C(=O)NN1CCOCC1` (stereo not drawn) [Compound 9] the value was greater than 40 µM; for `Cc1ccc(-c2ccc(C(=O)NC(c3nc(C)c(CCCO)s3)C3CCCCN3)[nH]2)cc1F` (single isomer, unassigned) [Compound 30], 11.2 ± 0.7 µM.
The same measure, in the same setting: for `Cc1n[nH]c(C)c1CNC(=O)c1ccc(-c2ccc(Cl)cc2)[nH]1` [Compound 11] the value was roughly 60 µM; for `Cc1ccc(-c2ccc(C(=O)NC(CNC(=N)N)c3nc(C)c(CO)s3)[nH]2)cc1F` (single isomer, unassigned) [Compound 49], greater than 28 µM; for `CC(=O)NCC(NC(=O)c1ccc(-c2ccc(Cl)c(F)c2)[nH]1)c1nc(C)c(CO)s1` (stereo not drawn) [Compound 64], roughly 40 µM.
`Cc1nc(C(CN)NC(=O)c2cnc(-c3ccc(Cl)cc3)[nH]2)sc1CO` (stereo not drawn) [Compound 97]: the IC50 in assay [1] (setting [3]) was greater than 51 µM.
On to `N=C(N)NCCCC(NC(=O)c1ccc(-c2ccccc2)[nH]1)C(=O)NCCO` (stereo not drawn) [Compound 5], for which the IC50 in assay [1] (setting [3]) is greater than 47 µM.
Same read-out and setting: for `Cc1ccc(-c2ccc(C(=O)NC(c3nc(C)c(CCO)s3)C3CCCCN3)[nH]2)cc1F` (single isomer, unassigned) [Compound 24] the value was 10.6 ± 0.1 µM.
Same read-out and setting: the result for `CS(=O)(=O)NCCNC(=O)C(CCCNC(=N)N)NC(=O)c1ccc(-c2ccccc2)[nH]1` (stereo not drawn) [Compound 7] reads greater than 43 µM.
The compound `CC(=O)NCC(NC(=O)c1ccc(-c2ccc(Cl)c(F)c2)[nH]1)c1nc(C)c(CO)s1` (stereo not drawn) [Compound 65] yielded a half-maximal inhibitory concentration (IC50) in assay [1] of roughly 40 µM.
For `Cc1nc(C(NC(=O)c2ccc(-c3ccc(Cl)c(F)c3)[nH]2)C2CCCCN2)sc1CCO` (single isomer, unassigned) [Compound 26], in assay [1] (setting [3]), the half-inhibitory concentration (IC50) was 7.5 ± 0.2 µM.
In the case of `Cc1nc(C(CN)NC(=O)c2ccc(-c3ccc(Cl)cc3)[nH]2)sc1CO` (single isomer, unassigned) [Compound 40], the half-inhibitory concentration (IC50) in assay [2] (Human immunodeficiency virus 1, TZM-bl, read-out: IC50 (μM) ± S.D., subtype B, ENV B41) is 0.28 ± 0.03 µM; in assay [2] (Human immunodeficiency virus 1, TZM-bl, read-out: IC50 (μM) ± S.D., subtype B, NIH # 11024, ENV AC10.0, clone 29) it was 0.29 ± 0.03 µM; in assay [2] (Human immunodeficiency virus 1, TZM-bl, read-out: IC50 (μM) ± S.D., subtype B, NIH # 11578, ENV pWEAUd15.410.5017), 0.28 ± 0.04 µM; in assay [2] (subtype A, ENV BG505-T332N, read-out: IC50 (μM) ± S.D.) it was 0.33 ± 0.04 µM.
In assay [1] (setting [3]), `Cc1nc(C(CN)NC(=O)c2ncc(-c3ccc(Cl)cc3)[nH]2)sc1CO` (stereo not drawn) [Compound 99] displayed an IC50 of 34.9 ± 3 µM.
On to `Cc1nccn1Cc1ccc(CNC(=O)c2ccc(-c3ccc(Cl)cc3)[nH]2)o1` [Compound 12], for which the midpoint of inhibition in assay [1] (setting [3]), the IC50, lay at 14.1 ± 1.3 µM.
Still for that read-out and setting: the result for `CCN(CC)Cc1ccc(OC)c(CNC(=O)c2ccc(-c3ccc(Cl)cc3)[nH]2)c1` [Compound 13] reads 4.3 ± 0.1 µM; that for `CN1CCN(NC(=O)C(CCCNC(=N)N)NC(=O)c2ccc(-c3ccc(Cl)cc3)[nH]2)CC1` (stereo not drawn) [Compound 8], greater than 42 µM; that for `NS(=O)(=O)c1ccc(CCNC(=O)c2ccc(-c3ccc(Cl)cc3)[nH]2)cc1` [Compound 14], greater than 50 µM.
The same measure, in the same setting: the result for `NCC(NC(=O)c1ccc(-c2ccc(Cl)c(F)c2)[nH]1)c1ncc(CO)s1` (stereo not drawn) [Compound 94] reads 1.1 ± 0.8 µM; that for `Cc1nc(C(NC(=O)c2ccc(-c3ccc(Cl)c(F)c3)[nH]2)C2CCCCN2)sc1CCCO` (single isomer, unassigned) [Compound 31], 5.1 ± 0.7 µM.
The same measure, in the same setting: the result for `CNc1cc(NC(=O)c2ccc(-c3ccc(F)c(Cl)c3)[nH]2)nc(NC(=N)N)n1` [Compound 53] reads greater than 36 µM.
In turn, `CS(=O)(=O)NCCNC(=O)C(CCCNC(=N)N)NC(=O)c1ccc(-c2ccc(Cl)cc2)[nH]1` (stereo not drawn) [Compound 6] gave an IC50 in assay [1] (setting [3]) greater than 37 µM.
Consider `Cc1nc(C(CNC(=N)N)NC(=O)c2ccc(-c3ccc(Cl)c(F)c3)[nH]2)sc1CO` (single isomer, unassigned) [Compound 48], for which the IC50 in assay [1] (setting [3]) was greater than 27 µM.
Still for that read-out and setting: for `Cc1nc(C(CN(C)C)NC(=O)c2ccc(-c3ccc(Cl)cc3)[nH]2)sc1CO` (stereo not drawn) [Compound 66] the value was 16.5 ± 3.4 µM; for `Cc1nc(C(NC(=O)c2ccc(-c3ccc(Cl)c(F)c3)[nH]2)C2CCCCN2)[nH]c1CO` (single isomer, unassigned) [Compound 35], 9 ± 0.2 µM.

These data come from patent publication US10576059B2, “Substituted phenylpyrrolecarboxamides with therapeutic activity in HIV” (New York Blood Center, Inc., priority 2014, dated 2020).
